In US20240246941A1, “SUBSTITUTED 4-(3-AMINOPROP-1-YL)AMINOQUINOLINE ANALOGS AS MODULATORS OF MELANOMA-ASSOCIATED ANTIGEN 11 UBIQUITIN LIGASE” (ST. JUDE CHILDREN'S RESEARCH HOSPITAL, INC., priority 2020, published 2024):

Target: MAGE-A11:PCF11 (Homo sapiens (Human), UniProt P43364)
Experiment: TR-FRET single point screening at 15 μM
Assay type: binding
Parameters: unit not given here
How it was run: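 Competition TR-FRET: compounds at final 15 μM mixed with 200 nM FAM-PCF11_4, 5 nM GST-MAGEA11 and 5 nM Tb-anti-GST in Tris pH 7.5/MgCl2/BSA/DTT buffer, room temperature, 90 min. Emission ratio 520/490 nm (340 nm excitation) expressed as % inhibition relative to positive and negative controls.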

[1] = single point TR-FRET screening at 15 μM against MAGE-A11:PCF11
[2] = single point TR-FRET screening of quinoline compounds against MAGE-A11:PCF11, 15 μM

Sequence of MAGE-A11:PCF11 (P43364 218-429): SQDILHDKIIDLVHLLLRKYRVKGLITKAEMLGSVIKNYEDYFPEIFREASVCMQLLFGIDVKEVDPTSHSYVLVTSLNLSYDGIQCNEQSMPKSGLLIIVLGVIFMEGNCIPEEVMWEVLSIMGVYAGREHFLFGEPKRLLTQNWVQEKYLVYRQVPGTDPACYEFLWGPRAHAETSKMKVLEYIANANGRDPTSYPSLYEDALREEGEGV

Row | SMILES | TR-FRET signal [1] | TR-FRET signal [2]
1 | CCCCCCN(CCC)CCCNc1c2ccc(Cl)cc2nc2ccc(OC)cc12 [SJ000520963] | −153.7 | 
2 | COc1ccc2nc3cc(Cl)ccc3c(NCCCNCc3cccn3C)c2c1 [SJ000520985] | −402.5 | 
3 | COc1ccc2nc3cc(Cl)ccc3c(NCCCNCc3cccnc3)c2c1 [SJ000520986] | −409 | 
4 | COc1ccc2nc3cc(Cl)ccc3c(NCCCNCc3cn(C)c4ccccc34)c2c1 [SJ000520987] | −252.4 | 
5 | COc1ccc2nc3cc(Cl)ccc3c(NCCCNCc3cccc(OC(F)(F)F)c3)c2c1 [SJ000520988] |  | −73.54
6 | COc1ccc2nc3cc(Cl)ccc3c(NCCCNCc3nccs3)c2c1 [SJ000520989] | −355.2 | 
7 | COc1ccc2nc3cc(Cl)ccc3c(NCCCNCc3cccc(C(F)(F)F)c3)c2c1 [SJ000520990] | −408.1 | 
8 | COc1ccc2nc3cc(Cl)ccc3c(NCCCNCc3cccc4c3OCO4)c2c1 [SJ000520991] | −257.1 | 
9 | COc1ccc2nc3cc(Cl)ccc3c(NCCCNCc3ccc(OC(F)(F)F)cc3)c2c1 [SJ000520992] | −201 | 
10 | COc1ccc2nc3cc(Cl)ccc3c(NCCCNCc3cc(F)ccc3OC)c2c1 [SJ000520993] | −365.4 | 
11 | COc1ccc2nc3cc(Cl)ccc3c(NCCCNCCC(C)(C)C)c2c1 [SJ000520994] | −456.3 | 
12 | CCCCNCCCNc1c2ccc(Cl)cc2nc2ccc(OC)cc12 [SJ000520995] | −405.5 | 
13 | COc1ccc2nc3cc(Cl)ccc3c(NCCCNCc3cc(Br)cs3)c2c1 [SJ000520996] | −287.6 | 
14 | COc1ccc2nc3cc(Cl)ccc3c(NCCCNCc3cc4ccccc4o3)c2c1 [SJ000520997] | −146.7 | 
15 | COc1ccc(F)c(CNCCCNc2c3ccc(Cl)cc3nc3ccc(OC)cc23)c1 [SJ000520998] | −355 | 
16 | COc1ccc2nc3cc(Cl)ccc3c(NCCCNCc3c(F)cccc3C(F)(F)F)c2c1 [SJ000520999] | −116.7 | 
17 | COc1ccc2nc3cc(Cl)ccc3c(NCCCNCc3cc4ccccc4s3)c2c1 [SJ000521000] | −220.4 | 
18 | COc1ccc2nc3cc(Cl)ccc3c(NCCCNCc3cc(OC(F)(F)F)ccc3OC)c2c1 [SJ000521001] | −231.8 | 
19 | COc1ccc2nc3cc(Cl)ccc3c(NCCCNCc3cc(C(F)(F)F)ccc3OC)c2c1 [SJ000521002] | −290.2 | 
20 | COc1ccc2nc3cc(Cl)ccc3c(NCCCNCC3CCOC3)c2c1 (stereo not drawn) [SJ000521003] | −442.3 | 
21 | COc1ccc2nc3cc(Cl)ccc3c(NCCCNCc3cccc(F)c3)c2c1 [SJ000521004] | −366.2 | 

Row | SMILES | TR-FRET signal [1] | TR-FRET signal [2]
22 | CCc1ccc(CNCCCNc2c3ccc(Cl)cc3nc3ccc(OC)cc23)cc1 [SJ000521005] | −390.4 | 
23 | COc1ccc2nc3cc(Cl)ccc3c(NCCCNCc3nccn3C)c2c1 [SJ000521006] | −279.9 | 
24 | CCCN(CCCNc1ccnc2cc(C(F)(F)F)ccc12)Cc1cncc(Br)c1 [SJ000521007] |  | 4.323
25 | CCCN(CCCNc1ccnc2cc(C(F)(F)F)ccc12)Cc1cccc(F)c1 [SJ000521008] |  | 27.85
26 | CCCN(CCCNc1ccnc2cc(C(F)(F)F)ccc12)Cc1ccc(CC)cc1 [SJ000521009] |  | 31.77
27 | CCCN(CCCNc1ccnc2cc(C(F)(F)F)ccc12)Cc1nc(C)cs1 [SJ000521010] |  | 0.8927
28 | CCCN(CCCNc1ccnc2cc(C(F)(F)F)ccc12)CCOCc1ccccc1 [SJ000521011] |  | 25.82
29 | CCCN(CCCNc1ccnc2cc(C(F)(F)F)ccc12)Cc1ccc(OC)c(F)c1 [SJ000521013] |  | 21.76
30 | CCCN(CCCNc1ccnc2cc(C(F)(F)F)ccc12)Cc1cc(F)ccc1C [SJ000521014] |  | 20.64
31 | CCCN(CCCNc1ccnc2cc(C(F)(F)F)ccc12)Cc1ccc(Cl)c(C(F)(F)F)c1 [SJ000521015] |  | 11.04
32 | Cn1cccc1CNCCCNc1ccnc2cc(Cl)ccc12 [SJ000521019] |  | 18.96
33 | Cn1cc(CNCCCNc2ccnc3cc(Cl)ccc23)c2ccccc21 [SJ000521020] |  | 18.47
34 | COC(=O)CCCCCNCCCNc1ccnc2cc(Cl)ccc12 [SJ000521021] |  | 39.12
35 | Clc1ccc2c(NCCCNCc3nccs3)ccnc2c1 [SJ000521023] |  | 4.988
36 | CC(C)(C)CCNCCCNc1ccnc2cc(Cl)ccc12 [SJ000521026] |  | 9.225
37 | CCCCNCCCNc1ccnc2cc(Cl)ccc12 [SJ000521027] |  | 8.454
38 | Clc1ccc2c(NCCCNCc3cc(Br)cs3)ccnc2c1 [SJ000521028] |  | 22.11
39 | Clc1ccc2c(NCCCNCc3cc4ccccc4o3)ccnc2c1 [SJ000521029] |  | 17.91
40 | Clc1ccc2c(NCCCNCc3cc4ccccc4s3)ccnc2c1 [SJ000521032] |  | 30.13
41 | Clc1ccc2c(NCCCNCc3csc4ccccc34)ccnc2c1 [SJ000521033] |  | 33.38
42 | Clc1ccc2c(NCCCNCc3nc4ccccc4s3)ccnc2c1 [SJ000521034] |  | 4.695

Row | SMILES | TR-FRET signal [1] | TR-FRET signal [2]
43 | Clc1ccc2c(NCCCNCc3cncc(Br)c3)ccnc2c1 [SJ000521037] |  | 7.014
44 | Clc1ccc2c(NCCCNCC3CCOC3)ccnc2c1 (stereo not drawn) [SJ000521038] |  | 0.4026
45 | Cn1ccnc1CNCCCNc1ccnc2cc(Cl)ccc12 [SJ000521040] |  | 1.449
46 | Cn1cccc1CNCCCNc1ccnc2cc(C(F)(F)F)ccc12 [SJ000521041] |  | −6.879
47 | FC(F)(F)c1ccc2c(NCCCNCc3cccnc3)ccnc2c1 [SJ000521042] |  | 15.04
48 | Cn1cc(CNCCCNc2ccnc3cc(C(F)(F)F)ccc23)c2ccccc21 [SJ000521043] |  | 29.11
49 | COC(=O)CCCCCNCCCNc1ccnc2cc(C(F)(F)F)ccc12 [SJ000521044] |  | 19.59
50 | FC(F)(F)c1ccc2c(NCCCNCc3nccs3)ccnc2c1 [SJ000521046] |  | 7.779
51 | CC(C)(C)CCNCCCNc1ccnc2cc(C(F)(F)F)ccc12 [SJ000521053] |  | 27.36
52 | CCCCNCCCNc1ccnc2cc(C(F)(F)F)ccc12 [SJ000521055] |  | 18.54
53 | FC(F)(F)c1ccc2c(NCCCNCc3cc(Br)cs3)ccnc2c1 [SJ000521056] |  | 32.72
54 | FC(F)(F)c1ccc2c(NCCCNCc3cc4ccccc4o3)ccnc2c1 [SJ000521057] |  | 27.48
55 | FC(F)(F)c1ccc2c(NCCCNCc3cc4ccccc4s3)ccnc2c1 [SJ000521060] |  | 35.63
56 | FC(F)(F)c1ccc2c(NCCCNCc3csc4ccccc34)ccnc2c1 [SJ000521061] |  | 41.86
57 | FC(F)(F)c1ccc2c(NCCCNCc3nc4ccccc4s3)ccnc2c1 [SJ000521062] |  | 14.43
58 | FC(F)(F)c1ccc2c(NCCCNCC3CCOC3)ccnc2c1 (stereo not drawn) [SJ000521065] |  | 15.56
59 | Cn1ccnc1CNCCCNc1ccnc2cc(C(F)(F)F)ccc12 [SJ000521068] |  | 10.19
60 | Clc1ccc2c(NCCCN(Cc3ccccc3)Cc3ccc[nH]3)ccnc2c1 [SJ000522717] |  | 20.46
61 | Clc1ccc2c(NCCCCN(Cc3ccccc3)Cc3ccccc3)ccnc2c1 [SJ000522718] | 17.35 | 
62 | Clc1ccc2c(NCCCN(Cc3ccccc3)Cc3ccc4c(c3)OCO4)ccnc2c1 [SJ000522719] |  | 9.001
63 | COc1ccc(CN(CCCNc2ccnc3cc(Cl)ccc23)Cc2ccccc2)cc1 [SJ000522720] |  | 11.78

Row | SMILES | TR-FRET signal [1] | TR-FRET signal [2]
64 | Fc1ccc(CN(CCCNc2ccnc3cc(Cl)ccc23)Cc2ccccc2)cc1 [SJ000522721] |  | 18.08
65 | COc1ccccc1CN(CCCNc1ccnc2cc(Cl)ccc12)Cc1ccccc1 [SJ000522722] |  | 4.43
66 | Clc1ccc2c(NCCCCN(Cc3ccccc3)Cc3ccc4c(c3)OCO4)ccnc2c1 [SJ000522723] | 16.51 | 
67 | COc1ccc(CN(CCCCNc2ccnc3cc(Cl)ccc23)Cc2ccccc2)cc1 [SJ000522724] | 6.683 | 
68 | Fc1ccc(CN(CCCCNc2ccnc3cc(Cl)ccc23)Cc2ccccc2)cc1 [SJ000522725] | 30.2 | 
69 | COc1ccccc1CN(CCCCNc1ccnc2cc(Cl)ccc12)Cc1ccccc1 [SJ000522726] | 19.4 | 
70 | CN(C)c1ccc(CN(CCCCNc2ccnc3cc(Cl)ccc23)Cc2ccccc2)cc1 [SJ000522727] | 21.52 | 
71 | COc1ccc(CN(CCCCNc2ccnc3cc(Cl)ccc23)Cc2ccccc2)cc1OC [SJ000522728] | 0.05797 | 
72 | Clc1ccc2c(NCCCCN(CCCc3ccccc3)Cc3ccccc3)ccnc2c1 [SJ000522729] | 27.82 | 
73 | CCCN(CCCNc1c2ccc(Cl)cc2nc2ccc(OC)cc12)CCCSC [SJ000522730] |  | 0.7867
74 | CCCN(CCCNc1c2ccc(Cl)cc2nc2ccc(OC)cc12)CCC(C)c1ccccc1 (stereo not drawn) [SJ000522731] | −121 | 
75 | CCCN(CCCNc1c2ccc(Cl)cc2nc2ccc(OC)cc12)Cc1ccc2[nH]ccc2c1 [SJ000522732] |  | 39.47
76 | CCCN(CCCNc1c2ccc(Cl)cc2nc2ccc(OC)cc12)Cc1c(F)cccc1OC [SJ000522733] | −187.1 | 
77 | CCCN(CCCNc1c2ccc(Cl)cc2nc2ccc(OC)cc12)Cc1c(F)c(F)c(F)c(F)c1F [SJ000522734] |  | −2.258
78 | CCCN(CCCNc1c2ccc(Cl)cc2nc2ccc(OC)cc12)Cc1ccc([N+](=O)[O-])s1 [SJ000522735] | −154.4 | 
79 | CCCN(CCCNc1c2ccc(Cl)cc2nc2ccc(OC)cc12)Cc1cn(C(C)=O)c2ccccc12 [SJ000522736] | −192.4 | 
80 | CCCN(CCCNc1c2ccc(Cl)cc2nc2ccc(OC)cc12)Cc1cc2ccccc2nc1Cl [SJ000522737] |  | −83.74
81 | CCCN(CCCNc1c2ccc(Cl)cc2nc2ccc(OC)cc12)Cc1ccc(Cl)c([N+](=O)[O-])c1 [SJ000522738] |  | −71.03
